Data as given in EPA's CvTdb concentration-time database.

Legend:
Assay in all cases: concentration in plasma after dosing
Rat [1] = conditions: dosed: Dibromoacetic acid, 25 mg/kg, oral, Male, Harlan Sprague Dawley
Rat [2] = conditions: 0.5 h; dosed: Dibromoacetic acid; 25 mg/kg; oral; Male; Harlan Sprague Dawley
Rat [3] = conditions: dosed: Dibromoacetic acid, 25 mg/kg, oral, Male, Harlan Sprague Dawley; remark: listed apart in the source
Rat [4] = conditions: dosed: Dibromoacetic acid, 10 mg/kg, iv, Male, F344
Rat [5] = conditions: dosed: Dibromoacetic acid, 10 mg/kg, iv, Male, F344; remark: listed apart in the source
Rat [6] = conditions: dosed: Dibromoacetic acid, 25 mg/kg, oral, Male, Harlan Sprague Dawley; remark: listed apart in the source
Rat [7] = conditions: 5 min; dosed: Dibromoacetic acid; 25 mg/kg; oral; Male; Harlan Sprague Dawley
Rat [8] = conditions: dosed: Dibromoacetic acid, 25 mg/kg, oral, Male, Harlan Sprague Dawley; remark: listed apart in the source
Rat [9] = conditions: 20 min; dosed: Dibromoacetic acid; 10 mg/kg; iv; Male; F344
Rat [10] = conditions: dosed: Dibromoacetic acid, 25 mg/kg, oral, Male, Harlan Sprague Dawley; remark: listed apart in the source
Rat [11] = conditions: dosed: Dibromoacetic acid, 25 mg/kg, oral, Male, Harlan Sprague Dawley; remark: listed apart in the source
Rat [12] = conditions: dosed: Dibromoacetic acid, 25 mg/kg, oral, Male, Harlan Sprague Dawley; remark: listed apart in the source
Rat [13] = conditions: 5 min; dosed: Dibromoacetic acid; 50 mg/kg; oral; Female; Harlan Sprague Dawley
Rat [14] = conditions: 5 min; dosed: Dibromoacetic acid; 25 mg/kg; oral; Male; Harlan Sprague Dawley; remark: listed apart in the source
Rat [15] = conditions: 40 min; dosed: Dibromoacetic acid; 10 mg/kg; iv; Male; F344
Rat [16] = conditions: 10 min; dosed: Dibromoacetic acid; 10 mg/kg; iv; Male; F344
Rat [17] = conditions: dosed: Dibromoacetic acid, 25 mg/kg, oral, Male, Harlan Sprague Dawley; remark: listed apart in the source
Rat [18] = conditions: 20 min; dosed: Dibromoacetic acid; 10 mg/kg; iv; Male; F344; remark: listed apart in the source
Rat [19] = conditions: dosed: Dibromoacetic acid, 25 mg/kg, oral, Male, Harlan Sprague Dawley; remark: listed apart in the source
Rat [20] = conditions: dosed: Dibromoacetic acid, 10 mg/kg, iv, Male, F344; remark: listed apart in the source
Rat [21] = conditions: dosed: Dibromoacetic acid, 110 mg/kg, iv, Female, Harlan Sprague-Dawley
Rat [22] = conditions: 0.5 h; dosed: Dibromoacetic acid; 25 mg/kg; oral; Male; Harlan Sprague Dawley; remark: listed apart in the source
Rat [23] = conditions: 5 min; dosed: Dibromoacetic acid; 25 mg/kg; oral; Male; Harlan Sprague Dawley; remark: listed apart in the source
Rat [24] = conditions: 5 min; dosed: Dibromoacetic acid; 25 mg/kg; oral; Male; Harlan Sprague Dawley; remark: listed apart in the source
Rat [25] = conditions: dosed: Dibromoacetic acid, 110 mg/kg, iv, Female, Harlan Sprague-Dawley; remark: listed apart in the source
Rat [26] = conditions: dosed: Dibromoacetic acid
Rat [27] = conditions: 5 min; dosed: Dibromoacetic acid; 25 mg/kg; oral; Male; Harlan Sprague Dawley; remark: listed apart in the source
Rat [28] = conditions: dosed: Dibromoacetic acid, 25 mg/kg, oral, Male, Harlan Sprague Dawley; remark: listed apart in the source
Rat [29] = conditions: dosed: Dibromoacetic acid, 10 mg/kg, iv, Male, F344; remark: listed apart in the source
Rat [30] = conditions: dosed: Dibromoacetic acid, 25 mg/kg, oral, Male, Harlan Sprague Dawley; remark: listed apart in the source
Rat [31] = conditions: 10 min; dosed: Dibromoacetic acid; 10 mg/kg; iv; Male; F344; remark: listed apart in the source
Rat [32] = conditions: 40 min; dosed: Dibromoacetic acid; 10 mg/kg; iv; Male; F344; remark: listed apart in the source
Rat [33] = conditions: dosed: Dibromoacetic acid, 25 mg/kg, oral, Female, Harlan Sprague Dawley
Rat [34] = conditions: dosed: Dibromoacetic acid, 50 mg/kg, oral, Female, Harlan Sprague Dawley
Rat [35] = conditions: dosed: Dibromoacetic acid, 25 mg/kg, oral, Male, Harlan Sprague Dawley; remark: listed apart in the source
Rat [36] = conditions: dosed: Dibromoacetic acid, 110 mg/kg, iv, Female, Harlan Sprague-Dawley; remark: listed apart in the source
Rat [37] = conditions: 0.5 h; dosed: Dibromoacetic acid; 25 mg/kg; oral; Male; Harlan Sprague Dawley; remark: listed apart in the source
Rat [38] = conditions: 0.5 h; dosed: Dibromoacetic acid; 25 mg/kg; oral; Male; Harlan Sprague Dawley; remark: listed apart in the source
Rat [39] = conditions: dosed: Dibromoacetic acid, 25 mg/kg, oral, Male, Harlan Sprague Dawley; remark: listed apart in the source
Rat [40] = conditions: dosed: Dibromoacetic acid, 25 mg/kg, oral, Female, Harlan Sprague Dawley; remark: listed apart in the source
Rat [41] = conditions: dosed: Dibromoacetic acid, 25 mg/kg, oral, Male, Harlan Sprague Dawley; remark: listed apart in the source
Rat [42] = conditions: dosed: Dibromoacetic acid, 25 mg/kg, oral, Male, Harlan Sprague Dawley; remark: listed apart in the source
Rat [43] = conditions: dosed: Dibromoacetic acid, 25 mg/kg, oral, Male, Harlan Sprague Dawley; remark: listed apart in the source
Rat [44] = conditions: dosed: Dibromoacetic acid, 25 mg/kg, oral, Male, Harlan Sprague Dawley; remark: listed apart in the source
Rat [45] = conditions: 5 min; dosed: Dibromoacetic acid; 50 mg/kg; oral; Female; Harlan Sprague Dawley; remark: listed apart in the source

O=C(O)C(Br)Br [Dibromoacetic acid]
Conditions | concentration in plasma [µg/mL]
Rat [1], 0.75 h | 10.3
Rat [1], 4 h | 0.771
Rat [3], 1.5 h | 1.55
Rat [3], 20 min | 13.5
Rat [4], 1 h | 0.186
Rat [4], 2 min | 28.8
Rat [5], 1 h | 0.208
Rat [5], 2 min | 28.1
Rat [6], 3 h | 1.72
Rat [6], 10 min | 0.853
Rat [8], 3 h | 0.129
Rat [8], 10 min | 12.1
Rat [10], 3 h | 1.62
Rat [10], 10 min | 1.88
Rat [11], 1.5 h | 1.56
Rat [11], 20 min | 24.2
Rat [12], 0.75 h | 6.41
Rat [12], 4 h | 0.772
Rat [17], 1 h | 8.77
Rat [17], 2 h | 1.77
Rat [19], 0.5 h | 15
Rat [19], 6 h | 0.466
Rat [20], 1.25 h | 0.301
Rat [20], 5 min | 12
Rat [21], 1.5 h | 17.6
Rat [21], 2 h | 5.37
Rat [25], 1.5 h | 20.9
Rat [25], 3 h | 0.472
Rat [28], 1.5 h | 1.46
Rat [28], 20 min | 13.2
Rat [29], 1.25 h | 0.101
Rat [29], 5 min | 14.5
Rat [30], 3 h | 0.476
Rat [30], 10 min | 6.89
Rat [33], 1 h | 8.12
Rat [33], 2 h | 0.887
Rat [34], 3 h | 2.05
Rat [34], 10 min | 9.97
Rat [35], 1 h | 8.05
Rat [35], 2 h | 1.28
Rat [36], 2 h | 4.66
Rat [36], 3 h | 0.459
Rat [39], 3 h | 0.646
Rat [39], 10 min | 5.77
Rat [40], 1 h | 8.86
Rat [40], 2 h | 1.24
Rat [41], 0.75 h | 8.79
Rat [41], 4 h | 0.592
Rat [42], 1.5 h | 2.03
Rat [42], 20 min | 20.9
Rat [43], 1.5 h | 3.34
Rat [43], 20 min | 10.7
Rat [44], 0.75 h | 10.2
Rat [44], 4 h | 1.54

Conditions | concentration in plasma [µg/mL]
Rat [2] | 7.63
Rat [7] | 2.21
Rat [9] | 2.54
Rat [13] | 2.8
Rat [14] | 0.238
Rat [15] | 0.498
Rat [16] | 6.23
Rat [18] | 1.89
Rat [22] | 13.5
Rat [23] | 3.39
Rat [24] | 1.63
Rat [27] | 0.294
Rat [31] | 7.19
Rat [32] | 0.607
Rat [37] | 12.6
Rat [38] | 8.9
Rat [45] | 4.03

concentration in plasma [µg/mL], Rat [26]
Conditions | Female | Male
0.5 h, 25 mg/kg, oral, Harlan Sprague Dawley | – | 10.8
0.75 h, 25 mg/kg, oral, Harlan Sprague Dawley | 8.91 | 11.5
1 h, 10 mg/kg, iv, F344 | – | 0.262
1 h, 25 mg/kg, oral, Harlan Sprague Dawley | 6.86 | 8.31
1.25 h, 10 mg/kg, iv, F344 | – | 0.0971
1.5 h, 10 mg/kg, iv, F344 | – | 0.175
1.5 h, 25 mg/kg, oral, Harlan Sprague Dawley | – | 2
1.5 h, 110 mg/kg, iv, Harlan Sprague-Dawley | 21.6 | –
2 h, 25 mg/kg, oral, Harlan Sprague Dawley | 1.46 | 1.85
2 h, 110 mg/kg, iv, Harlan Sprague-Dawley | 4.71 | –
2 min, 10 mg/kg, iv, F344 | – | 31.1
3 h, 25 mg/kg, oral, Harlan Sprague Dawley | – | 0.751
3 h, 50 mg/kg, oral, Harlan Sprague Dawley | 1.93 | –
3 h, 110 mg/kg, iv, Harlan Sprague-Dawley | 0.405 | –
4 h, 25 mg/kg, oral, Harlan Sprague Dawley | 0.967 | 0.106
5 min, 10 mg/kg, iv, F344 | – | 11.5
5 min, 25 mg/kg, oral, Harlan Sprague Dawley | – | 0.411
5 min, 50 mg/kg, oral, Harlan Sprague Dawley | 8.05 | –
6 h, 25 mg/kg, oral, Harlan Sprague Dawley | – | 0.109
10 min, 10 mg/kg, iv, F344 | – | 5.23
10 min, 25 mg/kg, oral, Harlan Sprague Dawley | – | 4.01
10 min, 50 mg/kg, oral, Harlan Sprague Dawley | 13.5 | –
20 min, 10 mg/kg, iv, F344 | – | 2.81
20 min, 25 mg/kg, oral, Harlan Sprague Dawley | – | 17.2
40 min, 10 mg/kg, iv, F344 | – | 0.544
